Patent publication US20120058504A1, “METHODS AND APPARATUS FOR DIELECT[…] AND MEASUREMENT OF SINGLE CELLS OR OTHER PARTICLES IN MI[…]” (SIMON FRASER UNIVERSITY, priority 2009, published 2012)

Legend:
[1] = tested on: MDR leukemia cancer cell (CEM VLB); experiment: DNR accumulation and MDR reversal in a single cell, DEP-based microfluidic chip (Chip IV), fluorescence measurement; details: DNR 35 μM, before CsA was delivered, 100-200 s, 35° C.
Method: Furthermore, DEP conditions were optimized to move a single multidrug resistant cancer cell 43 during fluorescence measurement using Chip TV (FIG. 20). Cell 43 was transferred out of fluorescent detection window 47 and back into detection window 47 by switching the voltage between electrodes AB and electrodes BC. When cell 43 was moved out of detection window 47, only the background (Fbackground) was measured. When cell 43 was moved back into detection window 47, the total fluorescence (Ftotal) was measured. By background correction, the absolute fluorescence of cell 43 (Fcell=Ftotal−Fbackground) was obtained. At the same time, a chemo-therapeutic drug, daunorubicin (DNR) was delivered to cell retention region 30 via solution reservoir 18B and microchannel 20B. The uptake of DNR inside a single MDR cancer cell 43 (CEM VLB) was monitored. The measurement results are depicted in FIG. 20b, showing many cycles of cell fluorescence (peaks) and troughs (background). […]
After DEP-based single cell chip 10 (Chip IV, FIG. 20) was used to move leukemia cancer cell 43 into and out of detection window 47 during fluorescence measurement for anticancer drug (for example, daunorubicin (DNR)) accumulation inside cell 43, chip 10 was further used for MDR reversal studies at an elevated temperature (35° C.). […]

CEM VLB cell = experiment: DNR accumulation in a single adhered cell, SASCA method (chip without DEP electrodes), fluorescence measurement; type: cell-based; details: chip translated, α-MEM medium
Method: (b) The fluorescent measurement of the adhered cell when the chip was translated into the measurement window (the peak provides the total fluorescence) and out of the measurement window (the baseline provides the background).
The SASCA method was performed for comparison with the DEP-based method. The SASCA method was performed in a chip without DEP electrodes. Cell 43 was moved into and out detection window 47 and at the same time DNR was delivered to cell retention region 30 (FIG. 21). In the SASCA method, cell movement was achieved by moving the chip with cell 43 which adheres to the bottom surface of cell retention region 30 in the chip.

In the case of `COc1cccc2c1C(=O)c1c(O)c3c(c(O)c1C2=O)C[C@@](O)(C(C)=O)C[C@@H]3O[C@H]1C[C@H](N)[C@H](O)[C@H](C)O1` [DNR, daunorubicin], the “DNR accumulation in cell (cell fluorescence, peaks minus troughs)” value [1] is reported as “very little DNR accumulation” and the “DNR accumulation in cell (fluorescence of cell over measurement time)” value (CEM VLB cell) is reported as “accumulated inside the cell”.
